Among the test systems are CCRF-CEM leukemia; EKVX NSCLC; HCT-15 colon; HOP-92 NSCLC; KM12 colon; MDA-MB-435; NCI/ADR-RES ovarian; OVCAR-3 ovarian; SK-OV-3 ovarian; TK-10 renal.
Assay in all cases: DTP human tumour cell line panel, 48 h

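Assay format: 96-well plates, 48-hour exposure. GI50 marks 50% less growth. Definition used: TGI = concentration required for complete inhibition of growth.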 Where a SMILES comes first, the peptide text is derived from it. [ ]: non-standard residue; d: D form. NMeY = CN[C@@H](Cc1ccc(O)cc1)C(=O)O; dNMeF = CN[C@H](Cc1ccccc1)C(=O)O; Sar = CNCC(=O)O Some results are limits rather than exact numbers.

With `COc1ccc(-c2cc(-c3cn[nH]c3-c3ccccn3)ccn2)cc1`, the GI50 with CCRF-CEM leukemia was above 25 µM; with EKVX NSCLC, above 25 µM; in the experiment with HCT-15 colon it was above 25 µM; with HOP-92 NSCLC it was above 25 µM; in the experiment on KM12 colon, above 25 µM; with MDA-MB-435, above 19.2 µM. In addition, the GI50 in the experiment with NCI/ADR-RES ovarian, with OVCAR-3 ovarian, in the experiment with SK-OV-3 ovarian and in the experiment on TK-10 renal was above 25 µM in each case. Also, the TGI with CCRF-CEM leukemia, in the experiment with EKVX NSCLC, in the experiment with HCT-15 colon, with HOP-92 NSCLC, with KM12 colon and in the experiment with MDA-MB-435 was above 25 µM throughout. Also, the TGI with NCI/ADR-RES ovarian, in the experiment on OVCAR-3 ovarian, in the experiment with SK-OV-3 ovarian and with TK-10 renal was above 25 µM each time.

For the compound `C[C@]12CCC3c4ccc(O)cc4CCC3C1Cc1ccc(O)cc12` (some centres not stated), the GI50 in the experiment with CCRF-CEM leukemia was 4.14 µM; with EKVX NSCLC it was 6.24 µM; in the experiment on HCT-15 colon it was 4.51 µM; in the experiment on HOP-92 NSCLC, 12.7 µM; with KM12 colon it was 3.4 µM; in the experiment on MDA-MB-435, 2.44 µM. For the same compound, the GI50 in the experiment on NCI/ADR-RES ovarian was 2.35 µM; with OVCAR-3 ovarian, 5.71 µM; in the experiment on SK-OV-3 ovarian, 14.3 µM; in the experiment with TK-10 renal it was 13.6 µM. The TGI in the experiment on CCRF-CEM leukemia came to 17.2 µM; in the experiment on EKVX NSCLC, 18.9 µM; in the experiment on HCT-15 colon, 19 µM; in the experiment with HOP-92 NSCLC, 27.9 µM; in the experiment with KM12 colon it was 20.6 µM; with MDA-MB-435, 11.1 µM. The TGI in the experiment on NCI/ADR-RES ovarian worked out at 6.74 µM; with OVCAR-3 ovarian it was 26.5 µM; with SK-OV-3 ovarian, 36.4 µM; in the experiment with TK-10 renal it was 40.2 µM.

Consider `CO[C@H]1C[C@@H]2CC[C@@H](C)[C@@](O)(O2)C(=O)C(=O)N2CCCC[C@H]2C(=O)O[C@H]([C@H](C)C[C@@H]2CC[C@@H](OP(C)(C)=O)[C@H](OC)C2)CC(=O)[C@H](C)/C=C(\C)[C@@H](O)[C@@H](OC)C(=O)[C@H](C)C[C@H](C)/C=C/C=C/C=C/1C`, for which the GI50 is 8.17 µM in the experiment on CCRF-CEM leukemia; below 0.01 µM in the experiment with EKVX NSCLC; 1.21 µM in the experiment with HCT-15 colon; 0.106 µM in the experiment with HOP-92 NSCLC; 11.1 µM in the experiment on KM12 colon; 1.41 µM in the experiment with MDA-MB-435. Also, the results for the GI50 with NCI/ADR-RES ovarian, in the experiment on OVCAR-3 ovarian and in the experiment on SK-OV-3 ovarian were 11 µM, 11.1 µM and 0.557 µM, respectively. The concentration for total growth inhibition (TGI) in the experiment with CCRF-CEM leukemia was 52.4 µM; in the experiment with EKVX NSCLC, 18.5 µM; with HCT-15 colon, 29.5 µM; in the experiment with HOP-92 NSCLC, 17.2 µM; with KM12 colon, 25.3 µM; in the experiment on MDA-MB-435, 23.9 µM. Further, the TGI in the experiment with NCI/ADR-RES ovarian turned out to be 30.8 µM; in the experiment on OVCAR-3 ovarian, 23.3 µM; in the experiment on SK-OV-3 ovarian, 21.7 µM; in the experiment with TK-10 renal, 22.3 µM.

Take `Cc1ccc(N=Nc2c(N)nn(-c3ccccc3)c2N)cc1`: the GI50 in the experiment with CCRF-CEM leukemia is 2.06 µM; with EKVX NSCLC, 3.72 µM; with HCT-15 colon, 0.612 µM; in the experiment on HOP-92 NSCLC, 3.44 µM; in the experiment on KM12 colon, 0.626 µM; with MDA-MB-435, 0.177 µM. Further, the GI50 with NCI/ADR-RES ovarian is 0.412 µM; with OVCAR-3 ovarian, 0.705 µM; with SK-OV-3 ovarian, 2.63 µM. Moreover, the TGI in the experiment on EKVX NSCLC is above 100 µM; in the experiment with HCT-15 colon, above 100 µM; in the experiment with HOP-92 NSCLC, 9.05 µM; in the experiment on KM12 colon it was above 100 µM; in the experiment on MDA-MB-435, 0.568 µM; in the experiment with NCI/ADR-RES ovarian, above 20.6 µM. Besides, the concentration for total growth inhibition (TGI) was 3.58 µM in the experiment with OVCAR-3 ovarian, above 100 µM with SK-OV-3 ovarian and above 100 µM in the experiment on TK-10 renal.

Consider `CC[C@H](C)[C@@H]1NC(=O)[C@H](Cc2ccc(O)cc2)N(C)C(=O)[C@H](Cc2ccccc2)NC(=O)CN(C)C(=O)[C@@H]2CCCN2C(=O)[C@@H](Cc2ccccc2)N(C)C(=O)[C@H](CC(C)C)NC1=O` (cyclo(F[NMeY]IL[dNMeF]P[Sar])), for which the concentration for 50% growth inhibition (GI50) with CCRF-CEM leukemia is 0.279 µM; in the experiment on EKVX NSCLC, 0.301 µM; in the experiment with HCT-15 colon it was 4.1 µM; in the experiment with HOP-92 NSCLC, 0.198 µM; in the experiment on KM12 colon, 0.271 µM; in the experiment on MDA-MB-435, 0.205 µM. For the same compound, the GI50 with NCI/ADR-RES ovarian was 14 µM; with OVCAR-3 ovarian, 0.248 µM; in the experiment with SK-OV-3 ovarian, 0.446 µM; with TK-10 renal it was 1.22 µM. The TGI in the experiment with CCRF-CEM leukemia was found to be 11.7 µM; in the experiment with EKVX NSCLC, 6.47 µM; in the experiment on HCT-15 colon, 19.8 µM; in the experiment with HOP-92 NSCLC, 4.83 µM; in the experiment with KM12 colon it was 5.48 µM; in the experiment on MDA-MB-435 it was 1.7 µM. Further, the TGI in the experiment with NCI/ADR-RES ovarian is above 100 µM; in the experiment with OVCAR-3 ovarian it was 3.39 µM; in the experiment with SK-OV-3 ovarian, 7.73 µM; in the experiment with TK-10 renal, 9.65 µM.

For `O=C1OC(C2=CC(=O)c3ccccc3C2=O)C(Cl)=C1Cl` (configuration not stated), the concentration for total growth inhibition (TGI) is 50.9 µM in the experiment on CCRF-CEM leukemia; above 100 µM with EKVX NSCLC; 41 µM in the experiment with HCT-15 colon; above 100 µM with HOP-92 NSCLC; above 100 µM in the experiment with KM12 colon; above 100 µM with MDA-MB-435. Moreover, the total growth inhibition concentration (TGI) with NCI/ADR-RES ovarian, in the experiment on OVCAR-3 ovarian, with SK-OV-3 ovarian and in the experiment with TK-10 renal was above 100 µM throughout.

Regarding `CCOC(=O)Cn1c(C)c(/C=N/NC(=O)c2cc3c(ccc4ccccc43)o2)c2ccccc21`, the GI50 is 0.41 µM in the experiment on CCRF-CEM leukemia; 0.662 µM in the experiment on EKVX NSCLC; 0.408 µM in the experiment on HCT-15 colon; 0.354 µM in the experiment with HOP-92 NSCLC; 0.306 µM in the experiment on KM12 colon; 0.0474 µM in the experiment with MDA-MB-435. In addition, the concentration for 50% growth inhibition (GI50) was 0.259 µM in the experiment with NCI/ADR-RES ovarian, 0.319 µM with OVCAR-3 ovarian, 0.804 µM in the experiment with SK-OV-3 ovarian and 1.26 µM in the experiment with TK-10 renal. Besides, the TGI with CCRF-CEM leukemia was above 100 µM; in the experiment on EKVX NSCLC, 42.5 µM; in the experiment on HCT-15 colon it was 5.45 µM; with HOP-92 NSCLC, 4.94 µM; in the experiment with KM12 colon, 1.52 µM; in the experiment with MDA-MB-435, 0.251 µM. Also, the total growth inhibition concentration (TGI) in the experiment with NCI/ADR-RES ovarian was found to be 3.08 µM; in the experiment with OVCAR-3 ovarian, 1.87 µM; in the experiment with SK-OV-3 ovarian, 9.44 µM; in the experiment with TK-10 renal it was 3.92 µM.

With `COc1cccc(-n2ncc3c(N/N=C/c4ccc(S(C)(=O)=O)cc4)ncnc32)c1`, the GI50 in the experiment with CCRF-CEM leukemia was above 25 µM; in the experiment with EKVX NSCLC, above 22.9 µM; in the experiment with HCT-15 colon, above 25 µM; with HOP-92 NSCLC, 7.36 µM; with KM12 colon it was 6.29 µM; in the experiment on MDA-MB-435, 3.55 µM. Further, the GI50 in the experiment with NCI/ADR-RES ovarian is 9.1 µM; in the experiment on OVCAR-3 ovarian, 7.41 µM; in the experiment with SK-OV-3 ovarian, 4.24 µM; in the experiment with TK-10 renal it was 8.4 µM. Moreover, the total growth inhibition concentration (TGI) with CCRF-CEM leukemia was above 25 µM; in the experiment with EKVX NSCLC, above 25 µM; in the experiment on HCT-15 colon, above 25 µM; in the experiment with HOP-92 NSCLC, 18.7 µM; in the experiment on KM12 colon, above 25 µM; with MDA-MB-435, above 25 µM. For the same compound, the total growth inhibition concentration (TGI) in the experiment with NCI/ADR-RES ovarian is above 25 µM; in the experiment on OVCAR-3 ovarian, above 23 µM; with SK-OV-3 ovarian, 10.7 µM; with TK-10 renal it was above 23.3 µM.

Usually GI50 stands for the concentration at which growth is held to half of that of the control. A word on the TGI: it is the concentration at which net growth stops. Read a high TGI as less potent growth arrest.

(Values after PubChem BioAssay (NCI).)
